In patent US20070027143A1, “Novel substituted 2,3-benzodiazepine derivatives” (priority 2003, published 2007) one finds melting point data, which are given here for 21 compounds.

With `CCc1nnc(N2N=C(c3ccc([N+](=O)[O-])cc3)c3cc4c(cc3C[C@H]2C)OCO4)s1` [Example 31, (R)-7-(5-Ethyl-1,3,4-thiadiazol-2-yl)-8-methyl-5-(4-nitrophenyl)-8,9-dihydro-7H-1,3-dioxolo[4,5-h][2,3]benzodiazepine], the melting point was determined as 105 °C.

As to `C[C@H]1Cc2cc3c(cc2C(c2ccc(N)cc2)=NN1c1nccs1)OCO3` [Example 62, (S)-5-(4-Aminophenyl)-8-methyl-7-(2-thiazolyl)-8,9-dihydro-7H-1,3-dioxolo[4,5-h][2,3]benzodiazepine], the melting point fell in the range of 124 to 128 °C.

`C[C@H]1Cc2cc3c(cc2C(c2ccc(N)cc2)=NN1C1=NCCS1)OCO3` [Example 70, (S)-5-(4-Aminophenyl)-7-(4,5-dihydro-thiazol-2-yl)-8-methyl-8,9-dihydro-7H-1,3-dioxolo-[4,5-h][2,3]benzodiazepine] had a melting point of 150 to 152 °C.

`Nc1ccc(C2=NN(c3nccs3)CCc3cc4c(cc32)OCO4)cc1` [Example 74, 5-(4-Aminophenyl)-7-(2-thiazolyl)-8,9-dihydro-7H-1,3-dioxolo[4,5-h][2,3]benzodiazepine] gave a melting point of 200 to 204 °C.

`CC1=Cc2cc3c(cc2C(c2ccc(C)c(N)c2)=NN1c1nnc(C)s1)OCO3` [Example 96, (±)-5-(3-Amino-4-methylphenyl)-8-methyl-7-(5-methyl-1,3,4-thiadiazol-2-yl)-7H-1,3-dioxolo-[4,5-h][2,3]benzodiazepine] displayed a melting point of 125 °C.

In turn, `CC(=O)Nc1ccc(C2=NN(c3nccs3)[C@H](C)Cc3cc4c(cc32)OCO4)cc1` [Example 123, (R)-5-(4-Acetylaminophenyl)-8-methyl-7-(2-thiazolyl)-8,9-dihydro-7H-1,3-dioxolo[4,5-h][2,3]benzodiazepine] showed a melting point of 126 °C.

Compound `CC(=O)Nc1ccc(C2=NN(c3nccs3)[C@@H](C)Cc3cc4c(cc32)OCO4)cc1` [Example 124, (S)-5-(4-Acetylaminophenyl)-8-methyl-7-(2-thiazolyl)-8,9-dihydro-7H-1,3-dioxolo-[4,5-h][2,3]benzodiazepine] had a melting point of 124 to 128 °C.

In the case of `CC(=O)Nc1ccc(C2=NN(C3=NCCS3)[C@H](C)Cc3cc4c(cc32)OCO4)cc1` [Example 125, (R)-5-(4-Acetylaminophenyl)-7-(4,5-dihydro-thiazol-2-yl)-8-methyl-8,9-dihydro-7H-1,3-dioxolo-[4,5-h][2,3]benzodiazepine], the melting point is 143 to 145 °C.

Turning to `CC(=O)Nc1ccc(C2=NN(C3=NCCS3)[C@@H](C)Cc3cc4c(cc32)OCO4)cc1` [Example 126, (S)-5-(4-Acetylaminophenyl)-7-(4,5-dihydro-thiazol-2-yl)-8-methyl-8,9-dihydro-7H-1,3-dioxolo-[4,5-h][2,3]benzodiazepine], the melting point fell in the range of 148 to 154 °C.

Take `CC(=O)Nc1ccc(C2=NN(c3nnc(C)s3)[C@H](C)Cc3cc4c(cc32)OCO4)cc1` [Example 130, (R)-5-(4-Acetylaminophenyl)-8-methyl-7-(5-methyl-1,3,4-thiadiazol-2-yl)-8,9-dihydro-7H-1,3-dioxolo-[4,5-h][2,3]benzodiazepine]: the melting point fell in the range of 276 to 277 °C.

Consider `Cc1cc(C2=NN(c3nnc(C4CC4)s3)[C@H](C)Cc3cc4c(cc32)OCO4)ccc1[N+](=O)[O-]` [Example 139, (R)-7-(5-Cyclopropyl-1,3,4-thiadiazol-2-yl)-8-methyl-5-(3-methyl-4-nitrophenyl)-8,9-dihydro-7H-1,3-dioxolo[4,5-h][2,3]benzodiazepine], for which the melting point was 126 to 130 °C.

The compound `Cc1cc(C2=NN(c3nnc(CO)s3)[C@H](C)Cc3cc4c(cc32)OCO4)ccc1[N+](=O)[O-]` [Example 140, (R)-7-(5-Hydroxymethyl-1,3,4-thiadiazol-2-yl)-8-methyl-5-(3-methyl-4-nitrophenyl)-8,9-dihydro-7H-1,3-dioxolo[4,5-h][2,3]benzodiazepine] had a melting point of 142 to 145 °C.

Consider `CC(=O)OCc1nnc(N2N=C(c3ccc([N+](=O)[O-])c(C)c3)c3cc4c(cc3C[C@H]2C)OCO4)s1` [Example 141, (R)-7-(5-Acetoxymethyl-1,3,4-thiadiazol-2-yl)-8-methyl-5-(3-methyl-4-nitrophenyl)-8,9-dihydro-7H-1,3-dioxolo[4,5-h][2,3]benzodiazepine], for which the melting point is 110 to 115 °C.

Consider `Cc1cc(C2=NN(c3nnc(CC#N)s3)[C@H](C)Cc3cc4c(cc32)OCO4)ccc1[N+](=O)[O-]` [Example 142, (R)-7-(5-Cyanomethyl-1,3,4-thiadiazol-2-yl)-8-methyl-5-(3-methyl-4-nitrophenyl)-8,9-dihydro-7H-1,3-dioxolo[4,5-h][2,3]benzodiazepine], for which the melting point fell in the range of 118 to 122 °C.

In turn, `CSCc1nnc(N2N=C(c3ccc([N+](=O)[O-])c(C)c3)c3cc4c(cc3C[C@H]2C)OCO4)s1` [Example 143, (R)-8-Methyl-5-(3-methyl-4-nitrophenyl)-7-(5-methylthiomethyl-1,3,4-thiadiazol-2-yl)-8,9-dihydro-7H-1,3-dioxolo[4,5-h][2,3]benzodiazepine] yielded a melting point of 132 to 134 °C.

As for `CCOC(=O)c1nnc(N2N=C(c3ccc([N+](=O)[O-])c(C)c3)c3cc4c(cc3C[C@H]2C)OCO4)s1` [Example 144, (R)-7-(5-Ethoxycarbonyl-1,3,4-thiadiazol-2-yl)-8-methyl-5-(3-methyl-4-nitrophenyl)-8,9-dihydro-7H-1,3-dioxolo[4,5-h][2,3]benzodiazepine], the melting point lay in the range of 115 to 118 °C.

Compound `Cc1cc(C2=NN(C3=NN=C(C(=O)OCc4ccccc4)[SH]3CN)[C@H](C)Cc3cc4c(cc32)OCO4)ccc1[N+](=O)[O-]` (stereo partly drawn) [Example 145, (R)-7-(5-Benzyloxycarbonyl-aminomethyl-1,3,4-thiadiazol-2-yl)-8-methyl-5-(3-methyl-4-nitrophenyl)-8,9-dihydro-7H-1,3-dioxolo[4,5-h][2,3]benzodiazepine] yielded a melting point of 240 to 243 °C.

For the compound `C/C=C/c1nnc(N2N=C(c3ccc([N+](=O)[O-])c(C)c3)c3cc4c(cc3C[C@H]2C)OCO4)s1` [Example 146, (R)-8-Methyl-5-(3-methyl-4-nitrophenyl)-7-{5-[1-(1E)-propen-1-yl]-1,3,4-thiadiazol-2-yl}-8,9-dihydro-7H-1,3-dioxolo[4,5-h][2,3]benzodiazepine], the melting point fell in the range of 232 to 237 °C.

`CCCCCCc1nnc(N2N=C(c3ccc([N+](=O)[O-])c(C)c3)c3cc4c(cc3C[C@H]2C)OCO4)s1` [Example 147, (R)-7-(5-Hexyl-1,3,4-thiadiazol-2-yl)-8-methyl-5-(3-methyl-4-nitrophenyl)-8,9-dihydro-7H-1,3-dioxolo[4,5-h][2,3]benzodiazepine] returned a melting point of 217 to 224 °C.

For `Cc1cc(C2=NN(C3=NCCS3)[C@H](C)Cc3cc4c(cc32)OCO4)ccc1N` [Example 163, (R)-5-(4-Amino-3-methylphenyl)-8-methyl-7-(4,5-dihydro-thiazol-2-yl)-8,9-dihydro-7H-1,3-dioxolo-[4,5-h][2,3]benzodiazepine], the melting point lay within 125 to 128 °C.

`Cc1cc(C2=NN(c3nccs3)[C@H](C)Cc3cc4c(cc32)OCO4)ccc1N` [Example 164, (R)-5-(4-Amino-3-methylphenyl)-8-methyl-7-(thiazol-2-yl)-8,9-dihydro-7H-1,3-dioxolo-[4,5-h][2,3]benzodiazepine] yielded a melting point of 124 to 127 °C.
